Data from US20190242876A1, “GENETICALLY ENCODED CELL DEATH INDICATORS AND METHODS OF USE” (The J. David Gladstone Institutes, A Testamentary Trust …, priority 2016, published 2019).

Legend:
[1] = system: rat primary cortical neurons; experiment: Toxicity of neurodegenerative disease proteins in neurons, cumulative hazard from GEDI ratio; type: cell-based; settings: automated GEDI ratio, 8 time points
Protocol: Rat primary cortical neuron cultures were prepared from embryos (embryonic day 16-18) and co-transfected using Lipofectamine2000 (ThermoFisher Scientific, Carlsbad, Calif., USA) with 150 ng/well of hSyn1:mRuby-P2a-GCaMP (Addgene #50943) and either Htt^ex1-Q27 or Htt^ex1-Q97 (known to induce neurodegeneration) in a 96-well format. […] FIG. 17A. The GCaMP intensity was detected and plotted as a percentage increase from baseline (t=0) (i.e., delta GCaMP/baseline GCaMP). Using the morphology as a readout, the time of death was determined for each neuron.
To examine the changes in signal increase as a cell dies, rat primary cortical neurons expressing GCaMP6f, mRuby, and HttEx1-Q97 were examined overtime. […] Using time lapse imaging, it was observed that 0 out of 94,106 dead rat primary cortical neurons examined regenerated after elevated GEDI signal, indicating elevated GEDI signal is terminal. In addition, the ratio of GCaMP6f/mRuby signal from rat primary cortical neurons expressing HttEx1-Q97 and HttEx1-Q25 at 0, 24, 48, 72, 96, and 120 hours post transfection was determined. FIG. 1B, the horizontal line at 0.75 separates dead from live neurons. […] Similarly, human motor neurons differentiated from induced pluripotent stem cells were transfected with […] hSyn1:mRuby-P2a-GCaMP and imaged with robotic microscopy every 6 hours up to 12 hours. […]

[2] = system: rat primary cortical neurons; experiment: Glutamate exposure of neurons expressing RGEDI, survival by GEDI ratio; type: cell-based; settings: within three hours of glutamate exposure
From the text: Briefly, neurons expressing RGEDI were exposed to the neurotransmitter glutamate. […] Furthermore, features of neurons such as neurite area were identified as associated with neurons that are resistant to high Glutamate exposure. These studies indicate that GEDIs can be used for screening for drug resistant or drug sensitive cells and identifying physiological characteristics of those cells that may underlie their sensitivity or resistance.

[3] = system: motor neurons of zebrafish larvae; experiment: Targeted neuronal ablation with MTZ in nitroreductase-expressing zebrafish; type: in vivo
Protocol: Briefly, zebrafish embryos were co-injected at 1-cell stage with mnx1:Gal4, UAS:GCaMP6f, and UAS:Nitroreductase-mCherry. Embryos were grown at 28.5° C. until 48 hours post fertilization (hpf), anaesthetized in tricaine, embedded in low-melting point agarose, and then imaged on a spinning disk confocal microscope. Images were acquired of the same motor neurons within the zebrafish at 0, 24 hours, and 48 hours after MTZ or DMSO was added to the media. Intensity of GCaMP6f was plotted as the change in fluorescence intensity from time point 0.
The GEDI reporter was also tested in skeletal muscle fiber. FIG. 13C. […] FIGS. 14A, 14B, and 22.

[4] = system: Rat primary neurons; experiment: RGEDI/EGFP ratio after NaN3-induced acute death of neurons; type: cell-based
Protocol: ANOVA Tukey's ***p<0.001, ns=not significant.
Rat primary neurons were transfected with hsyn1:RGEDI-P2A-EGFP as described above and imaged at DIV10. […] A non-linear regression was fit to the NaN3+Ca^2+ time course and a half-life of RGEDI/EGFP signal increase was determined to be 5 minutes and 50 seconds. […] ANOVA Tukey comparison to 0 minutes of each condition, *** p<0.001, **** p<0.0001. […] FIG. 3.

[5] = system: Rat primary neurons; experiment: KCl membrane depolarization of neurons expressing RGEDI-P2A-EGFP; type: cell-based; settings: 10 mM KCl (FIG. 21D)
Protocol: FIG. 21A depicts representative images of individual neurons over the time course. […] Next, the RGEDI intensity was plotted as a percentage increase from baseline (t=0) (ie delta RGEDI/baseline RGEDI). Using the morphology as a readout, the time of death was determined for each neuron. […] FIG. 21D.

“TDP43: neurodegenerative disease protein transfected into neurons” was tested. Which “toxicity over time compared to control (cumulative hazard)” value [1] did it give?
The value was “increased toxicity”.

For `N[C@@H](CCC(=O)O)C(=O)O` [glutamate], which neuronal death [2] is on record?
The neuronal death was “killed many of the cells”.

Which GCaMP expression ([3]; 24 and 48 hours after addition, zebrafish larvae motor neurons, NTR-mCherry) does the source give for `Cc1ncc([N+](=O)[O-])n1CCO` [MTZ, metronidazole] here?
The GCaMP expression was “increased”.

And the RGEDI-P2a-3XtagBFP signal ([3]; zebrafish neurons co-expressing NTR-mVenus, versus DMSO)?
The RGEDI-P2a-3XtagBFP signal was “signal increased”.

For `[N-]=[N+]=[N-].[Na+]` [NaN3], which RGEDI/EGFP ratio ([4]; 2% NaN3 in NBM with ~2 mM Ca^2+, compared to saline) is on record?
Its RGEDI/EGFP ratio is “significantly increased”.

What about the RGEDI/EGFP ratio ([4]; NaN3, neurons washed 3x and incubated in Ca2+ free PBS) of the same molecule?
Its RGEDI/EGFP ratio is “did not show a significant increase”.

With `[Cl-].[K+]` [KCl] as the molecule, how does the “excitation of RGEDI-P2A-EGFP signal” value [5] read?
The value was “failed to excite”.

Which “toxicity over time compared to control (cumulative hazard)” value [1] does the source give for α-synuclein here?
The value was “increased toxicity”.
